Assay results published in US7329782B2, “Compounds for the treatment of metabolic disorders” (Wellstat Therapeutics Corporation, priority 2001, dated 2008).

Assays:
[1] = tested on: high fat-fed C57B1/6J mice; assay: Circulating triglycerides, free fatty acids, insulin and leptin in high fat-fed C57B1/6J mice (Example L); format: in vivo; settings: oral gavage, after 4 weeks of drug treatment
Text: The high fat-fed mouse is a model for the hypertriglyceridemia and high circulating fatty acid levels, and the insulin and leptin resistance that are found in people at risk for and with obesity, diabetes, cardiovascular disease and other disorders. Male C57B1/6J mice, approximately 8 weeks of age, were randomly assigned into groups of 6 animals. […] Mice were fed a high-fat diet (diet number D12451, containing 45% of calories as fat (Research Diets, New Brunswick, N.J.)) for 6 weeks. […]

[2] = tested on: high fat-fed Sprague Dawley rats; assay: Circulating glucose, insulin, triglycerides and free fatty acids in high fat-fed Sprague Dawley rats (Example M); format: in vivo; settings: at all doses (10, 30 and 100 mg/kg)
Method: All animals were maintained in a temperature-controlled (25° C.) facility with a strict 12 h light/dark cycle and were given free access to water and food. Rats were fed a high-fat diet (diet number D12451 (containing 45% of calories as fat), Research Diets, New Brunswick, N.J.) for one month prior to drug treatment.
At the indicated time points, blood samples (˜100 μl) were obtained via the tail vein for serum chemistry analysis.

[3] = tested on: mice challenged with multiple high doses of STZ; assay: Mortality in severe insulin-dependent diabetes, multiple high doses of STZ (Example C); format: in vivo, balb/C mice; settings: STZ 75 mg/kg i.p. x 5 days, oral 30 mg/kg/day, after three weeks of daily treatment, 20 mice/group
Method: Female balb/C mice (19 wks of age at start of experiment) were challenged with multiple high doses of STZ (75 mg/kg i.p. on 5 consecutive days). Animals were then divided in two groups (20 mice/group) matched for severity of diabetes. Four days after the last dose of STZ, treatments were initiated. One group received Vehicle (0.4 ml of 0.75% HPMC, p.o.), and the other group received oral COMPOUND AA (30 mg/kg/day). After three weeks of daily treatment, cumulative mortality in the Vehicle Control group was 19/20 mice. In contrast, only 5/20 of the COMPOUND AA mice died during this time.

ob/ob mice [4] = assay: Acute hypoglycemic effect in ob/ob obese diabetic mice, Expt 2 (Example G); format: in vivo; settings: Mus musculus, single oral dose 250 mg/kg, 6 hours, read-out: % Reduction vs Control
Method: Male ob/ob mice (50-55 grams; blood glucose ˜300 mg/dL) were divided into groups of five animals each, and given a single oral dose of test drug (250 mg/kg) suspended in 0.5% carboxymethylcellulose vehicle; a control group received oral vehicle alone. Six hours after oral administration of test drugs or vehicle (control), blood samples were obtained from a tail vein and glucose content was determined with a glucometer.

ob/ob mice [5] = tested on: ob/ob mice
Text: Male lean (ob/+ heterozygote) and obese (ob/ob homozygote) C57BL/6 mice approximately 8 weeks of age were obtained from Jackson Labs (Bar Harbor, Me.) and randomly assigned into groups of 5 animals such that body weights and blood glucose concentrations were similar between groups. […] Blood glucose was routinely determined with glucose test strips and a Glucometer Elite XL device (Bayer Corporation). At selected time points, blood samples (˜100 microliters) were obtained with a heparinized capillary tube via the retro-orbital sinus for serum chemistry analysis.
The dose ranges of compounds in this experiment were chosen to include both suboptimal and potentially supraoptimal doses.

[6] = tested on: streptozotocin diabetic mice; assay: Streptozotocin diabetic mice treated with oral Compound AH for 14 weeks (Example A); format: in vivo, Balb/C mice; settings: STZ diabetic mice, 250 mg/kg daily oral, after several weeks of treatment
Method: Streptozotocin (STZ) is a toxin that selectively destroys insulin-producing pancreatic beta cells, and is widely used to induce insulin-dependent diabetes in experimental animals.
Female Balb/C mice (8 weeks old; 18-20 grams body weight) were treated with streptozotocin (STZ) (50 mg/kg i.p. on each of five consecutive days). Fourteen days after the last dose of STZ, blood glucose was measured to verify that the animals were diabetic, and the mice were divided into two groups of 5 animals each, one group receiving Compound AH (250 mg/kg) daily by oral gavage, and the other receiving vehicle (0.75% hydroxypropylmethylcellulose, a suspending agent, in water). […] Blood samples were taken periodically for determination of blood glucose concentrations, and body weights were also recorded.

[7] = tested on: mice with severe insulin-dependent diabetes induced by streptozotocin; assay: Survival of mice with lethal insulin-dependent diabetes, single dose of streptozotocin (Example B); format: in vivo, Balb/C mice
Method: Female Balb/C mice (14 weeks old) were treated with a single dose of streptozotocin (175 mg/kg i.p.) to induce severe insulin-dependent diabetes. Seven days later, mice were divided into three treatment groups: Compound AH, pioglitazone, and vehicle. Mice were treated daily via oral gavage, and survival was monitored over time.

SMILES: Cc1cccc(C)c1COc1cccc(C(=O)CCC(=O)O)c1 [Compound BI, 4-(3-(2,6-Dimethylbenzyloxy)phenyl)-4-oxobutyric acid]
- insulin serum levels (FIG. 1) [1]: effective at lowering
- leptin serum levels (FIG. 2) [1]: effective at lowering
- free fatty acids [2]: reduced

SMILES: O=C(O)CCC(=O)c1ccc(OCc2ccccc2F)cc1 [Compound AA, 4-(4-(2-Fluorobenzyloxy)phenyl)-4-oxobutyric acid]
- cumulative mortality (mice died) [3]: 5/20

SMILES: O=C(O)CCC(=O)c1cccc(OCc2c(F)cccc2F)c1 [Compound AW, 4-(3-(2,6-Difluorobenzyloxy)phenyl)-4-oxobutyric acid]
- change in vivo at 250 mg/kg (ob/ob mice [4]): -53.1 ± 3.1%
- serum triglycerides and fatty acids (ob/ob mice [5]; 100 to 300 mg/kg/day, versus comparators at their optimum antihyperglycemic doses): reduced serum triglycerides and fatty acids better than did either rosiglitazone or pioglitazone
- reduction in blood glucose (ob/ob mice [5]; daily oral, over the dose range): comparable to that achieved with pioglitazone and rosiglitazone
- serum liver enzymes (ALT, AST, SDH) (ob/ob mice [5]; doses ranging from 30 mg/kg/day to 300 mg/kg/day): dose-dependent decrease
- weight gain relative to vehicle-treated mice (ob/ob mice [5]; four week treatment period, over the dose range): dose-dependent attenuation of weight gain

SMILES: O=C(O)CCC(=O)c1ccc(OCc2c(F)cccc2F)cc1 [Compound AH, 4-(4-(2,6-Difluorobenzyloxy)phenyl)-4-oxobutyric acid]
- blood glucose concentrations [6]: began to decrease toward baseline
- Survivors (Survival at 12 weeks) ([7]; STZ 175 mg/kg i.p. mice, daily oral gavage 250 mg/kg/day): Four of the five
- body weights of survivors ([7]; at 12 weeks, 250 mg/kg/day oral): recovered and were maintained in the normal range

SMILES: Cc1cccc(C)c1COc1cccc(C(=O)CCC(=O)[O-])c1.[Na+] [Compound BL, 4-(3-(2,6-Dimethylbenzyloxy)phenyl)-4-oxobutyric acid Sodium salt]
- insulin serum levels (FIG. 1) [1]: effective at lowering
- leptin serum levels (FIG. 2) [1]: effective at lowering
